The record followed here is ChEMBL document CHEMBL3880386, “Combination comprising the MEK inhibitor N-{3-[3-cyclopropyl-5-(2-fluoro-4-iodo- phenylamino)-6,8-dimethyl-2,4,7-trioxo-3,4,6,7-tetrahydro-2H-pyrido[4,3-d]pyrimidin-1-yl]phenyl}acetamide and the Akt inhibitor N-{(1S)-2-amino-1-[(3-fluorophenyl)methyl]ethyl}-5-chloro-4-(4-chloro-1- …” (2014).

Experiment [1] in a line: Growth inhibition of human Calu3 cells at 1:10 molar ratio of compound in presence of N-{3-[3-cyclopropyl-5-(2-fluoro-4-iodo-phenylamino)-6,8-dimethyl- 2,4,7-trioxo-3,4,6,7-tetrahydro-2H-pyrido[4,3-d]pyrimidin-1-yl]phenyl}acetamide incubated for 72 hrs by Cell-titer-Glo reagent based assay. It is filed as functional. To be noted: Calu-3, 72 h.
Experiment [2] can be described thus: Growth inhibition of human DLD1 cells at 1:10 molar ratio of compound in presence of N-{3-[3-cyclopropyl-5-(2-fluoro-4-iodo-phenylamino)-6,8-dimethyl- 2,4,7-trioxo-3,4,6,7-tetrahydro-2H-pyrido[4,3-d]pyrimidin-1-yl]phenyl}acetamide incubated for 72 hrs by Cell-titer-Glo reagent based assay. The class given is functional. The note with it: DLD-1, 72 h.
A short description of experiment [3]: Growth inhibition of human HT-29 cells at 1:10 molar ratio of compound in presence of N-{3-[3-cyclopropyl-5-(2-fluoro-4-iodo-phenylamino)-6,8-dimethyl- 2,4,7-trioxo-3,4,6,7-tetrahydro-2H-pyrido[4,3-d]pyrimidin-1-yl]phenyl}acetamide incubated for 72 hrs by Cell-titer-Glo reagent based assay. The class given is functional. To be noted: HT-29, 72 h.
Experiment [4] in a line: Growth inhibition of human Calu6 cells at 1:10 molar ratio of compound in presence of N-{3-[3-cyclopropyl-5-(2-fluoro-4-iodo-phenylamino)-6,8-dimethyl- 2,4,7-trioxo-3,4,6,7-tetrahydro-2H-pyrido[4,3-d]pyrimidin-1-yl]phenyl}acetamide incubated for 72 hrs by Cell-titer-Glo reagent based assay. The class given is functional. The note with it: Calu-6, 72 h.
Experiment [5] can be described thus: Growth inhibition of human A427 cells at 1:10 molar ratio of compound in presence of N-{3-[3-cyclopropyl-5-(2-fluoro-4-iodo-phenylamino)-6,8-dimethyl- 2,4,7-trioxo-3,4,6,7-tetrahydro-2H-pyrido[4,3-d]pyrimidin-1-yl]phenyl}acetamide incubated for 72 hrs by Cell-titer-Glo reagent based assay. It is filed as functional. The note with it: A-427, 72 h.
A short description of experiment [6]: Growth inhibition of human EFM19 cells at 1:10 molar ratio of compound in presence of N-{3-[3-cyclopropyl-5-(2-fluoro-4-iodo-phenylamino)-6,8-dimethyl- 2,4,7-trioxo-3,4,6,7-tetrahydro-2H-pyrido[4,3-d]pyrimidin-1-yl]phenyl}acetamide incubated for 72 hrs by Cell-titer-Glo reagent based assay. It is filed as functional. The note with it: EFM-19, 72 h.
Experiment [7] can be described thus: Growth inhibition of human NCI-H23 cells assessed combination index at 1:10 molar ratio of compound in presence of N-{3-[3-cyclopropyl-5-(2-fluoro-4-iodo-phenylamino)-6,8-dimethyl- 2,4,7-trioxo-3,4,6,7-tetrahydro-2H-pyrido[4,3-d]pyrimidin-1-yl]phenyl}acetamide incubated for 72 hrs by Cell-titer-Glo reagent based assay. The class given is functional.
A short description of experiment [8]: Growth inhibition of human SW480 cells at 1:10 molar ratio of compound in presence of N-{3-[3-cyclopropyl-5-(2-fluoro-4-iodo-phenylamino)-6,8-dimethyl- 2,4,7-trioxo-3,4,6,7-tetrahydro-2H-pyrido[4,3-d]pyrimidin-1-yl]phenyl}acetamide incubated for 72 hrs by Cell-titer-Glo reagent based assay. The class given is functional. The note with it: SW480, 72 h.
The nature of experiment [9]: Growth inhibition of human NCI-H1155 cells at 1:10 molar ratio of compound in presence of N-{3-[3-cyclopropyl-5-(2-fluoro-4-iodo-phenylamino)-6,8-dimethyl- 2,4,7-trioxo-3,4,6,7-tetrahydro-2H-pyrido[4,3-d]pyrimidin-1-yl]phenyl}acetamide incubated for 72 hrs by Cell-titer-Glo reagent based assay. It is filed as functional. The note with it: NCI-H1155, 72 h.
The nature of experiment [10]: Growth inhibition of human LS1034 cells assessed combination index at 1:10 molar ratio of compound in presence of N-{(1S)-2-amino-1-[(3-fluorophenyl)methyl]ethyl}-5-chloro-4-(4-chloro-1-methyl-1H-pyrazol-5-yl)-2-thiophenecar- boxamide incubated for 72 hrs by Cell-titer-Glo reagent based assay. The class given is functional, LS-1034.
Experiment [11] can be described thus: Growth inhibition of human SW837 cells at 1:10 molar ratio of compound in presence of N-{(1S)-2-amino-1-[(3-fluorophenyl)methyl]ethyl}-5-chloro-4-(4-chloro-1-methyl-1H-pyrazol-5-yl)-2-thiophenecar- boxamide incubated for 72 hrs by Cell-titer-Glo reagent based assay. The class given is functional. To be noted: SW837, 72 h.
The nature of experiment [12]: Growth inhibition of human COLO205 cells assessed combination index at 1:10 molar ratio of compound in presence of N-{(1S)-2-amino-1-[(3-fluorophenyl)methyl]ethyl}-5-chloro-4-(4-chloro-1-methyl-1H-pyrazol-5-yl)-2-thiophenecar- boxamide incubated for 72 hrs by Cell-titer-Glo reagent based assay. The class given is functional, COLO 205.
Experiment [13] can be described thus: Growth inhibition of human HCT8 cells assessed combination index at 1:10 molar ratio of compound in presence of N-{(1S)-2-amino-1-[(3-fluorophenyl)methyl]ethyl}-5-chloro-4-(4-chloro-1-methyl-1H-pyrazol-5-yl)-2-thiophenecar- boxamide incubated for 72 hrs by Cell-titer-Glo reagent based assay. It is filed as functional, HCT-8.
Experiment [14] is described as follows: Growth inhibition of human MDA-MB-175-VII cells assessed combination index at 1:10 molar ratio of compound in presence of N-{(1S)-2-amino-1-[(3-fluorophenyl)methyl]ethyl}-5-chloro-4-(4-chloro-1-methyl-1H-pyrazol-5-yl)-2-thiophenecar- boxamide incubated for 72 hrs by Cell-titer-Glo reagent based assay. The class given is functional.

SMILES strings stand for the structures.

`Cn1ncc(Cl)c1-c1cc(C(=O)N[C@H](CN)Cc2cccc(F)c2)sc1Cl` [AFURESERTIB]: the IC50 (as a rule, the midpoint of a concentration-inhibition curve) in experiment [1] was 392 nM; in [2], 932 nM; in [3] it was 15 nM; in experiment [4], 31 nM; in experiment [5] it was 103 nM; in experiment [6] it was 300 nM. Besides, the IC50 in experiment [8] was found to be 259 nM; in experiment [9], 101 nM. The CI in experiment [7] was found to be 0.76.

As to `CC(=O)Nc1cccc(-n2c(=O)n(C3CC3)c(=O)c3c(Nc4ccc(I)cc4F)n(C)c(=O)c(C)c32)c1` [TRAMETINIB], the CI was 0.84 in experiment [10], 0.88 in experiment [12], 0.39 in [13] and 0.39 in experiment [14]. The concentration for half-maximal inhibition (IC50) in experiment [11] was 25 nM.
